20 molecules from US20250388605A1, “HETEROBIFUNCTIONAL COMPOUNDS AND METHODS OF TREATING DISEASE” (Halda Therapeutics OpCo, Inc., priority 2022, published 2025) can be followed below.

Molecules are shown by their SMILES. Where only a bound is given, the exact number is not on record here.

For experiment [1], the system named is T-Rex 293 cell line SC3 cells lacking increased expression of androgen receptor protein. As to the kind of experiment: Cellular growth inhibition, T-Rex 293 SC3 cells without doxycycline (no increased androgen receptor expression), CellTiter-Glo. The format is cell-based. The following applies: T-Rex 293 SC3 cells not exposed to doxycycline (no increased androgen receptor expression), 72 hours. In short, it runs like this:
(§1)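 Growth inhibition is measured in an inducible AR-expressing T-Rex 293 clone, SC3, cultured with or without 10 ng/mL doxycycline in hormone-depleted medium. Test compounds are applied for 72 hours. GI50 values derive from CellTiter-Glo 2.0 signal fitted by four-parameter regression.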

Experiment [2] relates to T-Rex 293 cell line SC3 cells having increased expression of androgen receptor protein due to exposure to doxycycline. Description: Cellular growth inhibition, T-Rex 293 SC3 cells with doxycycline (increased androgen receptor expression), CellTiter-Glo. Format: cell-based. The settings on record: T-Rex 293 SC3 cells with 10 ng/mL doxycycline (increased androgen receptor expression), 72 hours, CellTiter-Glo 2.0. In a few lines:
as §1
(Cellular ATP, detected with luciferase, serves as a proxy for viable cell number.)

A further experiment deals with T47D cells. As to the kind of experiment: Cellular Growth Inhibition Assay for T47D Cells (CellTiter-Glo). The format is cell-based, human. The following applies: 72 hours. In short, it runs like this:
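GI50 values derive from four-parameter regression of CellTiter-Glo 2.0 luminescence, using zero luminescence as baseline. Human breast cancer T47D cells (3000/well; DMEM, 10% FBS, 0.2 units/mL insulin) were exposed for 72 h to compound dilutions at 0.5% DMSO, with dosing starting 24 h after seeding.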

In the next experiment the test system is VCaP cells. Description: Cellular growth inhibition assay for VCaP cells, CellTiter-Glo. Format: cell-based, human. The following applies: 72 hours. In a few lines:
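GI50 values come from four-parameter curve fits of luminescence data normalized to a zero baseline. Compound, in medium with 0.5% DMSO, was added one day after plating and left for 72 h before CellTiter-Glo 2.0 addition.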

Usually GI50 stands for the concentration at which growth is held to half of that of the control. Take `Cn1cc(-c2cc(C(C)(C)O)ccc2Oc2ccc(OC3CCN(C4CCN(c5ncc(C(=O)N[C@H]6C(C)(C)[C@H](Oc7ccc(C#N)c(Cl)c7)C6(C)C)cn5)CC4)CC3)cc2)c2cc[nH]c2c1=O` [Compound I-328]: the GI50 (in experiment [1]; in experiment [2]; with T47D cells (Homo sapiens); with VCaP cells (Homo sapiens)) was under 0.5 µM each time.

Take `Cn1cc(-c2cc3c(cc2Oc2ccc(N4CC(CC5CN(c6ncc(C(=O)N[C@H]7C(C)(C)[C@H](Oc8ccc(C#N)c(Cl)c8)C7(C)C)cn6)C5)C4)cc2)CCC3(C)O)c2cc[nH]c2c1=O` (some centres unmarked) [Compound I-329, N-[3-(3-chloro-4-cyano-phenoxy)-2,2,4,4-tetramethyl-cyclobutyl]-2-[3-[[1-[4-[1-hydroxy-1-methyl-6-(6-methyl-7-oxo-1H-pyrrolo[2,3-c]pyridin-4-yl)indan-5-yl]oxyphenyl]azetidin-3-yl]methyl]azetidin-1-yl]pyrimidine-5-carboxamide]: the GI50 in experiment [1] is over 3 µM; in experiment [2] it was under 0.5 µM; with T47D cells (Homo sapiens), over 3 µM; in the experiment with VCaP cells (Homo sapiens) it was under 0.5 µM.

`Cn1cc(-c2cc(C(C)(C)O)ccc2Oc2ccc(N3CC4(C3)CN(c3ncc(C(=O)N[C@H]5C(C)(C)[C@H](Oc6ccc(C#N)c(Cl)c6)C5(C)C)cn3)C4)cc2)c2cc[nH]c2c1=O` [Compound I-330]: the GI50 (in experiment [1]; in experiment [2]; in the experiment with T47D cells; in the experiment on VCaP cells) was under 0.5 µM in each case.

As to `Cn1cc(-c2cc(C(C)(C)O)ccc2Oc2ccc(C3CC(N4CC5(CN(c6ncc(C(=O)N[C@H]7C(C)(C)[C@H](Oc8ccc(C#N)c(Cl)c8)C7(C)C)cn6)C5)C4)C3)cc2)c2cc[nH]c2c1=O` (some centres unmarked) [Compound I-331], the GI50 (in experiment [1]; in experiment [2]; in the experiment with T47D cells; with VCaP cells) was under 0.5 µM each time.

Turning to `Cn1cc(-c2cc(C(C)(C)O)ccc2Oc2ccc(N3CC(CC4CCN(c5ncc(C(=O)N[C@H]6C(C)(C)[C@H](Oc7ccc(C#N)c(Cl)c7)C6(C)C)cn5)CC4)C3)nc2)c2cc[nH]c2c1=O` [Compound I-333, N-[3-(3-chloro-4-cyano-phenoxy)-2,2,4,4-tetramethyl-cyclobutyl]-2-[4-[[1-[5-[4-(1-hydroxy-1-methyl-ethyl)-2-(6-methyl-7-oxo-1H-pyrrolo[2,3-c]pyridin-4-yl)phenoxy]-2-pyridyl]azetidin-3-yl]methyl]-1-piperidyl]pyrimidine-5-carboxamide], the 50% growth inhibitory concentration (GI50) in experiment [1] was over 3 µM; in experiment [2] it was under 0.5 µM; with T47D cells (Homo sapiens) it was under 0.5 µM; with VCaP cells (Homo sapiens), under 0.5 µM.

On to `Cn1cc(-c2cc(C(C)(C)O)ccc2Oc2ccc(N3CC(CC4CCN(c5cnc(C(=O)N[C@H]6C(C)(C)[C@H](Oc7ccc(C#N)c(Cl)c7)C6(C)C)cn5)CC4)C3)nc2)c2cc[nH]c2c1=O` [Compound I-334], for which the GI50 in experiment [1] was over 3 µM; in experiment [2] it was under 0.5 µM; in the experiment on T47D cells (Homo sapiens) it was under 0.5 µM; in the experiment on VCaP cells (Homo sapiens), under 0.5 µM.

As for `Cn1cc(-c2cc(C(C)(C)O)ccc2Oc2ccc(CCC3CCN(c4cnc(C(=O)N[C@H]5C(C)(C)[C@H](Oc6ccc(C#N)c(Cl)c6)C5(C)C)cn4)CC3)cc2)c2cc[nH]c2c1=O` [Compound I-335], the GI50 in experiment [1] is over 3 µM; in experiment [2], over 3 µM; with T47D cells, under 0.5 µM; with VCaP cells, 0.5 to 1.5 µM.

On to `Cn1cc(-c2cc(C(C)(C)O)ccc2Oc2ccc(N3CC(CC4CN(c5ccc(C(=O)N[C@H]6C(C)(C)[C@H](Oc7ccc(C#N)c(Cl)c7)C6(C)C)cc5)C4)C3)cc2)c2cc[nH]c2c1=O` [Compound I-336], for which the 50% growth inhibitory concentration (GI50) in experiment [1] is over 3 µM; in experiment [2], under 0.5 µM; in the experiment with T47D cells (Homo sapiens), under 0.5 µM; in the experiment on VCaP cells (Homo sapiens) it was over 3 µM.

In the case of `CCS(=O)(=O)Nc1ccc(Oc2ccc(N3CC(CC4CCN(c5ncc(C(=O)N[C@H]6C(C)(C)[C@H](Oc7ccc(C#N)c(Cl)c7)C6(C)C)cn5)CC4)C3)cc2)c(-c2cn(C)c(=O)c3[nH]ccc23)c1` [Compound I-337], the 50% growth inhibitory concentration (GI50) in experiment [1] was over 3 µM; in experiment [2], under 0.5 µM; with T47D cells (Homo sapiens), under 0.5 µM; in the experiment with VCaP cells (Homo sapiens) it was under 0.5 µM.

On to `Cn1cc(-c2cc(C(C)(C)O)ccc2Oc2ccc(N3CC(CC4CCN(c5ccc(C(=O)N[C@H]6C(C)(C)[C@H](Oc7ccc(C#N)c(Cl)c7)C6(C)C)nc5)CC4)C3)cc2)c2cc[nH]c2c1=O` [Compound I-338], for which the GI50 in experiment [1] was over 3 µM; in experiment [2], over 3 µM; in the experiment on T47D cells (Homo sapiens), 0.5 to 1.5 µM; in the experiment on VCaP cells (Homo sapiens), over 3 µM.

As to `Cn1cc(-c2cc(C(C)(C)O)ccc2Oc2ccc(OC[C@@H]3CCCN(c4ncc(C(=O)N[C@H]5C(C)(C)[C@H](Oc6ccc(C#N)c(Cl)c6)C5(C)C)cn4)C3)cc2)c2cc[nH]c2c1=O` [Compound I-339], the concentration for 50% growth inhibition (GI50) is over 3 µM in experiment [1], under 0.5 µM in experiment [2], under 0.5 µM in the experiment with T47D cells (Homo sapiens) and over 3 µM in the experiment with VCaP cells (Homo sapiens).

Take `Cn1cc(-c2cc(C(C)(C)O)ccc2Oc2ccc(OC[C@@H]3CCCN(c4cnc(C(=O)N[C@H]5C(C)(C)[C@H](Oc6ccc(C#N)c(Cl)c6)C5(C)C)cn4)C3)cc2)c2cc[nH]c2c1=O` [Compound I-340]: the GI50 in experiment [1] was over 3 µM; in experiment [2], over 3 µM; in the experiment on T47D cells, under 0.5 µM; in the experiment on VCaP cells it was over 3 µM.

`Cn1cc(-c2cc(C(C)(C)O)ccc2Oc2ccc(CCC3CCN(c4cnc(C(=O)N[C@H]5C(C)(C)[C@H](Oc6ccc(C#N)c(Cl)c6)C5(C)C)cn4)CC3)nc2)c2cc[nH]c2c1=O` [Compound I-341]: the GI50 (in experiment [1]; in experiment [2]; in the experiment on T47D cells; with VCaP cells) was under 0.5 µM each time.

Consider `Cn1cc(-c2cc(C(C)(C)O)ccc2Oc2ccc(N3CC4(CCCN(c5cnc(C(=O)N[C@H]6C(C)(C)[C@H](Oc7ccc(C#N)c(Cl)c7)C6(C)C)cn5)C4)C3)cc2)c2cc[nH]c2c1=O` [Compound I-342], for which the GI50 is over 3 µM in experiment [1], under 0.5 µM in experiment [2], under 0.5 µM with T47D cells and under 0.5 µM in the experiment on VCaP cells.

For the molecule `Cn1cc(-c2cc(C(C)(C)O)ccc2Oc2ccc(N3CC4(CCCN(c5ncc(C(=O)N[C@H]6C(C)(C)[C@H](Oc7ccc(C#N)c(Cl)c7)C6(C)C)cn5)C4)C3)cc2)c2cc[nH]c2c1=O` [Compound I-343], the 50% growth inhibitory concentration (GI50) in experiment [1] was over 3 µM; in experiment [2], under 0.5 µM; in the experiment with T47D cells it was under 0.5 µM; in the experiment on VCaP cells, under 0.5 µM.

Consider `Cn1cc(-c2cc(C(C)(C)O)ccc2-n2cc(N3CC(CC4CCN(c5ncc(C(=O)NC6C(C)(C)C(Oc7ccc(C#N)c(Cl)c7)C6(C)C)cn5)CC4)C3)ccc2=O)c2cc[nH]c2c1=O` (centres unmarked) [Compound I-344, N-[3-(3-chloro-4-cyano-phenoxy)-2,2,4,4-tetramethyl-cyclobutyl]-2-[4-[[1-[1-[4-(1-hydroxy-1-methyl-ethyl)-2-(6-methyl-7-oxo-1H-pyrrolo [2,3-c]pyridin-4-yl)phenyl]-6-oxo-3-pyridyl]azetidin-3-yl]methyl]-1-piperidyl]pyrimidine-5-carboxamide], for which the 50% growth inhibitory concentration (GI50) in experiment [1] is over 3 µM; in experiment [2] it was over 3 µM; in the experiment with T47D cells (Homo sapiens), 0.5 to 1.5 µM; with VCaP cells (Homo sapiens), over 3 µM.

For `Cn1cc(-c2cc(C(C)(C)O)ccc2Oc2ccc(N3CC(CC4CCN(c5ncc(C(=O)N[C@H]6C(C)(C)[C@H](Oc7ccc(C#N)c(Cl)c7)C6(C)C)cn5)CC4)C3)cn2)c2cc[nH]c2c1=O` [Compound I-345, N-[3-(3-chloro-4-cyano-phenoxy)-2,2,4,4-tetramethyl-cyclobutyl]-2-[4-[[1-[6-[4-(1-hydroxy-1-methyl-ethyl)-2-(6-methyl-7-oxo-1H-pyrrolo [2,3-c]pyridin-4-yl)phenoxy]-3-pyridyl]azetidin-3-yl]methyl]-1-piperidyl]pyrimidine-5-carboxamide], the 50% growth inhibitory concentration (GI50) in experiment [1] was over 3 µM; in experiment [2] it was under 0.5 µM; with T47D cells (Homo sapiens), under 0.5 µM; with VCaP cells (Homo sapiens), under 0.5 µM.

`Cn1cc(-c2cc(C(C)(C)O)ccc2Oc2ccc(N3CC(CC4CCN(c5cnc(C(=O)N[C@H]6C(C)(C)[C@H](Oc7ccc(C#N)c(Cl)c7)C6(C)C)cn5)CC4)C3)cn2)c2cc[nH]c2c1=O` [Compound I-346]: the GI50 in experiment [1] was over 3 µM; in experiment [2], under 0.5 µM; with T47D cells (Homo sapiens), under 0.5 µM; in the experiment on VCaP cells (Homo sapiens), under 0.5 µM.

Regarding `Cn1cc(-c2cc(C(C)(C)O)ccc2Oc2ccc(N3CCC(CC4CN(c5ncc(C(=O)N[C@H]6C(C)(C)[C@H](Oc7ccc(C#N)c(Cl)c7)C6(C)C)cn5)C4)CC3)cc2)c2cc[nH]c2c1=O` [Compound I-350], the GI50 (in experiment [1]; in experiment [2]; in the experiment on T47D cells (Homo sapiens); in the experiment with VCaP cells (Homo sapiens)) was under 0.5 µM each time.

On to `Cn1cc(-c2cc(C(C)(C)O)ccc2Oc2ccc(N3CC(C4CC5(C4)CN(c4ncc(C(=O)N[C@H]6C(C)(C)[C@H](Oc7ccc(C#N)c(Cl)c7)C6(C)C)cn4)C5)C3)cc2)c2cc[nH]c2c1=O` [Compound I-351], for which the GI50 (in experiment [1]; in experiment [2]; in the experiment with T47D cells; with VCaP cells) was under 0.5 µM in each case.
